From US7265120B2, “Pyrazine derivatives and pharmaceutical use thereof” (Astellas Pharma Inc., priority 2004, dated 2007)

For `CC(C)n1nc(-c2nc(C(=O)O)c(N)nc2-c2ccccc2Br)ccc1=O` [Example 198, 3-amino-5-(2-bromophenyl)-6-(1-isopropyl-6-oxo-1,6-dihydro-3-pyridazinyl)-2-pyrazinecarboxylic acid], the melting point was 237 °C (dec.).
For `Cn1nc(-c2nc(O)c(N)nc2-c2ccccc2)ccc1=O` [Example 187, 6-(5-amino-6-hydroxy-3-phenyl-2-pyrazinyl)-2-methyl-3(2H)-pyridazinone], the melting point was > 250 °C.
In the case of `Cc1nc(-c2ccc(=O)n(C(C)C)n2)c(-c2ccccc2)nc1O` [Example 2, 6-(5-Hydroxy-6-methyl-3-phenyl-2-pyrazinyl)-2-isopropyl-3(2H)-pyridazinone], the melting point is reported as > 250 °C.
With `Cn1nc(-c2nc(NCc3ccccc3)c(N)nc2-c2ccccc2)ccc1=O` [Example 144, 6-[5-amino-6-(benzylamino)-3-phenyl-2-pyrazinyl]-2-methyl-3(2H)-pyridazinone] the melting point was > 250 °C.
With `CC(C)n1nc(-c2nc(-c3cn[nH]c3)c(N)nc2-c2ccccc2)ccc1=O` [Example 90, 6-[5-amino-3-phenyl-6-(1H-pyrazol-4-yl)-2-pyrazinyl]-2-isopropyl-3(2H)-pyridazinone] the melting point was > 250 °C.
In the case of `Cn1nc(-c2nc(-n3ccnc3)c(N)nc2-c2ccccc2)ccc1=O` [Example 154, 6-[5-amino-6-(1H-imidazol-1-yl)-3-phenyl-2-pyrazinyl]-2-methyl-3(2H)-pyridazinone], the melting point is reported as > 250 °C.

First: CC(C)n1nc(-c2nc(NCCN(C)C)c(N)nc2-c2ccccc2)ccc1=O [Example 132, 6-(5-amino-6-{[2-(dimethylamino)ethyl]amino}-3-phenyl-2-pyrazinyl)-2-isopropyl-3(2H)-pyridazinone]
Second: CC(C)n1nc(-c2nc(N(C)C)c(N)nc2-c2ccccc2)ccc1=O [Example 96, 6-[5-amino-6-(dimethylamino)-3-phenyl-2-pyrazinyl]-2-isopropyl-3(2H)-pyridazinone]
The melting point of the first is higher: 188 to 189 °C for the first, 174 to 176 °C for the second.

First: Cn1nc(-c2nc(NCCNc3ccccc3)c(N)nc2-c2ccccc2)ccc1=O [Example 123, 6-{5-amino-6-[(2-anilinoethyl)amino]-3-phenyl-2-pyrazinyl}-2-methyl-3(2H)-pyridazinone]
Second: Cn1nc(-c2nc(NCCc3ccccn3)c(N)nc2-c2ccccc2)ccc1=O [Example 127, 6-(5-amino-3-phenyl-6-{[2-(2-pyridyl)ethyl]amino}-2-pyrazinyl)-2-methyl-3(2H)-pyridazinone]
The melting point of the first is lower: 181 to 183 °C for the first, 224 to 227 °C for the second.

First: CC(C)n1nc(-c2ncc(N)nc2-c2ccccc2)ccc1=O [Example 9, 6-(5-amino-3-phenyl-2-pyrazinyl)-2-isopropyl-3(2H)-pyridazinone]
Second: COc1nc(-c2ccc(=O)n(C(C)C)n2)c(-c2ccccc2)nc1N [Example 157, 6-(5-amino-6-methoxy-3-phenyl-2-pyrazinyl)-2-isopropyl-3(2H)-pyridazinone]
The melting point of the first is lower: 204 to 206 °C for the first, 211 to 214 °C for the second.

Compared with `Cn1nc(-c2nc(NCCN3CCCCC3)c(N)nc2-c2ccccc2)ccc1=O` [Example 121, 6-(5-amino-3-phenyl-6-{[2-(1-piperidinyl)ethyl]amino}-2-pyrazinyl)-2-methyl-3(2H)-pyridazinone], `Cn1nc(-c2nc(OCCN3CCOCC3)c(N)nc2-c2ccccc2)ccc1=O` [Example 181, 6-{5-amino-6-[2-(4-morpholinyl)ethoxy]-3-phenyl-2-pyrazinyl}-2-methyl-3(2H)-pyridazinone] is higher in melting point: 155 to 157 °C for the first, 185 to 187 °C for the second.

Compared with `COc1ccc(-c2nc(-c3ccc(=O)n(C(C)C)n3)c(-c3ccccc3)nc2N)cn1` [Example 83, 6-[5-amino-6-(6-methoxy-3-pyridyl)-3-phenyl-2-pyrazinyl]-2-isopropyl-3(2H)-pyridazinone], `COc1ccc(-c2nc(N)c(C(N)=O)nc2-c2ccc(=O)n(C(C)C)n2)cn1` [Example 194, 3-amino-6-(1-isopropyl-6-oxo-1,6-dihydro-3-pyridazinyl)-5-(6-methoxy-3-pyridyl)-2-pyrazinecarboxamide] is higher in melting point: 230 to 232.5 °C for the first, 250 to 252 °C for the second.

First: CC(C)n1nc(-c2nc(C#C[Si](C)(C)C)c(N)nc2-c2ccccc2)ccc1=O
Second: CC(C)Oc1nc(-c2ccc(=O)n(C(C)C)n2)c(-c2ccccc2)nc1N [Example 160, 6-(5-amino-6-isopropoxy-3-phenyl-2-pyrazinyl)-2-isopropyl-3(2H)-pyridazinone]
The melting point of the first is higher: 213 to 215 °C for the first, 198 to 200 °C for the second.

First: Cn1nc(-c2nc(NCc3ccco3)c(N)nc2-c2ccccc2)ccc1=O [Example 124, 6-{5-amino-6-[(2-furylmethyl)amino]-3-phenyl-2-pyrazinyl}-2-methyl-3(2H)-pyridazinone]
Second: Cn1nc(-c2nc(-c3ccco3)c(N)nc2-c2ccccc2)ccc1=O [Example 89, 6-[5-amino-6-(2-furyl)-3-phenyl-2-pyrazinyl]-2-methyl-3(2H)-pyridazinone]
The melting point of the first is higher: 249 to 252 °C for the first, 186 to 188 °C for the second.

First: CC(C)n1nc(-c2nc(NC3CCCCC3)c(N)nc2-c2ccccc2)ccc1=O [Example 137, 6-[5-amino-6-(cyclohexylamino)-3-phenyl-2-pyrazinyl]-2-isopropyl-3(2H)-pyridazinone]
Second: CC(C)n1nc(-c2nc(NC3CCN(Cc4ccccc4)CC3)c(N)nc2-c2ccccc2)ccc1=O [Example 107, 6-{5-amino-6-[(1-benzyl-4-piperidinyl)amino]-3-phenyl-2-pyrazinyl}-2-isopropyl-3(2H)-pyridazinone]
The melting point of the first is higher: 227 to 228.5 °C for the first, 214 to 216.5 °C for the second.

First: CC(C)n1nc(-c2nc(N3CCOCC3)c(N)nc2-c2ccccc2)ccc1=O [Example 140, 6-[5-amino-6-(4-morpholinyl)-3-phenyl-2-pyrazinyl]-2-isopropyl-3(2H)-pyridazinone]
Second: CC(C)n1nc(-c2nc(N3CCNCC3)c(N)nc2-c2ccccc2)ccc1=O [Example 112, 6-[5-amino-3-phenyl-6-(1-piperazinyl)-2-pyrazinyl]-2-isopropyl-3(2H)-pyridazinone]
The melting point of the first is higher: 212 to 214.5 °C for the first, 157 to 159 °C for the second.

`CC(C)n1nc(-c2nc(C(N)=O)c(N)nc2-c2ccccc2Br)ccc1=O` [Example 192, 3-amino-5-(2-bromophenyl)-6-(1-isopropyl-6-oxo-1,6-dihydro-3-pyridazinyl)-2-pyrazinecarboxamide] and `CC(C)n1nc(-c2nc(C#N)c(N)nc2-c2ccccc2Br)ccc1=O` [Example 188, 3-amino-5-(2-bromophenyl)-6-(1-isopropyl-6-oxo-1,6-dihydro-3-pyridazinyl)-2-pyrazinecarbonitrile] fall in the same range of melting point: 240 to 243 °C for the first, 240 to 243 °C for the second.

Compared with `CC(C)n1nc(-c2nc(N3CCC(N(C)C)C3)c(N)nc2-c2ccccc2)ccc1=O` (stereo not drawn) [Example 109, 6-{5-amino-6-[3-(dimethylamino)-1-pyrrolidinyl]-3-phenyl-2-pyrazinyl}-2-isopropyl-3(2H)-pyridazinone], `CC(C)n1nc(-c2nc(C(=O)O)c(N)nc2-c2ccccc2)ccc1=O` [Example 8, 3-amino-6-(1-isopropyl-6-oxo-1,6-dihydro-3-pyridazinyl)-5-phenyl-2-pyrazinecarboxylic acid] is higher in melting point: 150 to 152 °C for the first, 233 to 235 °C for the second.

First: Cn1nc(-c2nc(N3CCN4CCCC4C3)c(N)nc2-c2ccccc2)ccc1=O (stereo not drawn) [Example 131, 6-[5-amino-6-(hexahydropyrrolo[1,2-a]pyrazin-2(1H)-yl)-3-phenyl-2-pyrazinyl]-2-methyl-3(2H)-pyridazinone]
Second: Cn1nc(-c2nc(S(C)(=O)=O)c(N)nc2-c2ccccc2)ccc1=O [Example 62, 6-[5-amino-6-(methylsulfonyl)-3-phenyl-2-pyrazinyl]-2-methyl-3(2H)-pyridazinone]
The melting point of the first is lower: 177 to 179 °C for the first, 231 to 233 °C for the second.

First: CC(C)n1nc(-c2nc(N3CCN(c4ccccc4)CC3)c(N)nc2-c2ccccc2)ccc1=O [Example 115, 6-[5-amino-3-phenyl-6-(4-phenyl-1-piperazinyl)-2-pyrazinyl]-2-isopropyl-3(2H)-pyridazinone]
Second: CC(C)n1nc(-c2nc(N3CCN(c4ccccn4)CC3)c(N)nc2-c2ccccc2)ccc1=O [Example 142, 6-{5-amino-3-phenyl-6-[4-(2-pyridyl)-1-piperazinyl]-2-pyrazinyl}-2-isopropyl-3(2H)-pyridazinone]
The melting point of the first is higher: 193 to 195 °C for the first, 163 to 165 °C for the second.

Compared with `CC(C)n1nc(-c2nc(OCCc3ccccc3)c(N)nc2-c2ccccc2)ccc1=O` [Example 174, 6-[5-amino-3-phenyl-6-(2-phenylethoxy)-2-pyrazinyl]-2-isopropyl-3(2H)-pyridazinone], `CC(C)n1nc(-c2nc(OCCOCc3ccccc3)c(N)nc2-c2ccccc2)ccc1=O` [Example 168, 6-{5-amino-6-[2-(benzyloxy)ethoxy]-3-phenyl-2-pyrazinyl}-2-isopropyl-3(2H)-pyridazinone] is lower in melting point: 173 to 176 °C for the first, 120 to 122 °C for the second.

Compared with `CC(C)n1nc(-c2nc(C#N)c(C#N)nc2-c2ccccc2Br)ccc1=O` [Example 195, 5-(2-bromophenyl)-6-(1-isopropyl-6-oxo-1,6-dihydro-3-pyridazinyl)-2,3-pyrazinedicarbonitrile], `CC(C)n1nc(-c2nc(C3=CCCN(C)C3)c(N)nc2-c2ccccc2)ccc1=O` [Example 92, 6-[5-amino-6-(1-methyl-1,2,5,6-tetrahydro-3-pyridyl)-3-phenyl-2-pyrazinyl]-2-isopropyl-3(2H)-pyridazinone] is higher in melting point: 159.5 to 161 °C for the first, 191 to 193 °C for the second.

Compared with `CC(C)n1nc(-c2nc(OC3CCN(Cc4ccccc4)CC3)c(N)nc2-c2ccccc2)ccc1=O` [Example 178, 6-{5-amino-6-[(1-benzyl-4-piperidinyl)oxy]-3-phenyl-2-pyrazinyl}-2-isopropyl-3(2H)-pyridazinone], `Cn1nc(-c2nc(Oc3ccc(F)cc3)c(N)nc2-c2ccccc2)ccc1=O` [Example 186, 6-[5-amino-6-(4-fluorophenoxy)-3-phenyl-2-pyrazinyl]-2-methyl-3(2H)-pyridazinone] is higher in melting point: 148 to 150.5 °C for the first, 229 to 231 °C for the second.

With `CCn1nc(-c2ncc(NCc3ccc(OC)cc3)nc2-c2ccccc2)ccc1=O` [Example 58, 2-ethyl-6-{5-[(4-methoxybenzyl)amino]-3-phenyl-2-pyrazinyl}-3(2H)-pyridazinone] the melting point was 148 to 150 °C.
